Reference: ChEMBL document CHEMBL5346899, “PKM2/PDK1 dual-targeted shikonin derivatives restore the sensitivity of EGFR-mutated NSCLC cells to gefitinib by remodeling glucose metabolism” (Eur J Med Chem, 2023)
Calls of active or inactive are those of the source. The rule behind the calls is not given here.

Experiments:
A549 = experiment: cells; format: functional, cell-based; conditions: Homo sapiens, A549, 24 h
Description: Antiproliferative activity against human A549 cells assessed as inhibition of cell growth incubated for 24 hrs by CCK-8 assay

NCI-H1975 [1] = experiment: cells; format: functional, cell-based; conditions: Homo sapiens, NCI-H1975, 24 h
Description: Antiproliferative activity against human NCI-H1975 cells assessed as inhibition of cell growth incubated for 24 hrs by CCK-8 assay

NCI-H1975 [2] = experiment: Antiproliferative activity against human NCI-H1975 cells assessed as inhibition of clone formation rate; format: functional, cell-based
HCC827 [3] = experiment: Antiproliferative activity against human HCC827 cells assessed as inhibition of clone formation rate; format: functional, cell-based
HCC827 [4] = experiment: Antiproliferative activity against human HCC827 cells assessed as reduction in clone size; format: functional, cell-based
NCI-H1299 [5] = experiment: Induction of apoptosis in human NCI-H1299 cells assessed as early apoptotic cells at 1 micromol/L incubated for 24 hrs by Annexin V-FITC/PI staining based analysis (reference value: 2.43%); format: functional; conditions: dose 1 µmol/L, at 1 µM
NCI-H1299 [6] = experiment: Induction of apoptosis in human NCI-H1299 cells assessed as early apoptotic cells at 2 micromol/L incubated for 24 hrs by Annexin V-FITC/PI staining based analysis (reference value: 2.43%); format: functional; conditions: dose 2 µmol/L, at 2 µM
NCI-H1299 [7] = experiment: Induction of apoptosis in human NCI-H1299 cells assessed as late apoptotic cells at 1 micromol/L incubated for 24 hrs by Annexin V-FITC/PI staining based analysis (reference value: 14.9%); format: functional; conditions: dose 1 µmol/L, at 1 µM
NCI-H1975 [8] = experiment: Induction of apoptosis in human NCI-H1975 cells assessed as early apoptotic cells at 1 micromol/L incubated for 24 hrs by Annexin V-FITC/PI staining based analysis (reference value: 1.88%); format: functional; conditions: dose 1 µmol/L, at 1 µM
NCI-H1975 [9] = experiment: Induction of apoptosis in human NCI-H1975 cells assessed as early apoptotic cells at 2 micromol/L incubated for 24 hrs by Annexin V-FITC/PI staining based analysis (reference value: 1.88%); format: functional; conditions: dose 2 µmol/L, at 2 µM
NCI-H1975 [10] = experiment: Induction of apoptosis in human NCI-H1975 cells assessed as late apoptotic cells at 2 micromol/L incubated for 24 hrs by Annexin V-FITC/PI staining based analysis (reference value: 2.66%); format: functional; conditions: dose 2 µmol/L, at 2 µM
NCI-H1975 [11] = experiment: Induction of apoptosis in human NCI-H1975 cells assessed as regulation of cleaved PARP expression by Western blot analysis; format: functional, cell-based
NCI-H1975 [12] = experiment: Induction of apoptosis in human NCI-H1975 cells assessed as regulation of cleaved Caspase-9 expression by Western blot analysis; format: functional, cell-based
NCI-H1975 [13] = experiment: Induction of apoptosis in human NCI-H1975 cells assessed as regulation of FADD expression by Western blot analysis; format: functional, cell-based
NCI-H1975 [14] = experiment: Induction of apoptosis in human NCI-H1975 cells assessed as regulation of caspase-8 expression by Western blot analysis; format: functional, cell-based
HCC827 [15] = experiment: Induction of intracellular ROS accumulation in human HCC827 cells; format: functional, cell-based
Pyruvate kinase PKM [16] = target: T1, Pyruvate kinase PKM (Homo sapiens, UniProt P14618); experiment: Binding affinity to PKM2 (unknown origin) assessed as dissociation constant associated for 60 secs and dissociated for 90 secs by bio-layer interferometry analysis
Target sequence in this assay (P14618 whole entry): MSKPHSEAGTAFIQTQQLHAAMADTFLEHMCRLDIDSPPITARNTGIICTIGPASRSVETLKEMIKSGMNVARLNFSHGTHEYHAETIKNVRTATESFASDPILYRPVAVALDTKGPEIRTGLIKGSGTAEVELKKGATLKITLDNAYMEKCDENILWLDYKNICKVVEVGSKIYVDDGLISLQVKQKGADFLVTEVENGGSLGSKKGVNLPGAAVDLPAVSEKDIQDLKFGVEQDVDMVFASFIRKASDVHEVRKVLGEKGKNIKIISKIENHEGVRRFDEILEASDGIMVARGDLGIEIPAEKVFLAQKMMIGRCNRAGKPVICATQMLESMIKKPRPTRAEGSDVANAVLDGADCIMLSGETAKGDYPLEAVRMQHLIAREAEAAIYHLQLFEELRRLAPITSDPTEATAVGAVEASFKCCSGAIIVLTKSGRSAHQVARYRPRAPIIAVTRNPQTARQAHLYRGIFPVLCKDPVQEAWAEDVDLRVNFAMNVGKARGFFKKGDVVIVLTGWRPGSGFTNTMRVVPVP

Pyruvate kinase PKM [17] = target: T1, Pyruvate kinase PKM; experiment: Activation of PKM2 in human NCI-H1975 cells at 1 to 2 micromol/L by Western blot analysis; format: cell-based; conditions: filed as activator, dose 1-2 µmol/L
Target sequence in this assay (P14618 2-531 limits assumed): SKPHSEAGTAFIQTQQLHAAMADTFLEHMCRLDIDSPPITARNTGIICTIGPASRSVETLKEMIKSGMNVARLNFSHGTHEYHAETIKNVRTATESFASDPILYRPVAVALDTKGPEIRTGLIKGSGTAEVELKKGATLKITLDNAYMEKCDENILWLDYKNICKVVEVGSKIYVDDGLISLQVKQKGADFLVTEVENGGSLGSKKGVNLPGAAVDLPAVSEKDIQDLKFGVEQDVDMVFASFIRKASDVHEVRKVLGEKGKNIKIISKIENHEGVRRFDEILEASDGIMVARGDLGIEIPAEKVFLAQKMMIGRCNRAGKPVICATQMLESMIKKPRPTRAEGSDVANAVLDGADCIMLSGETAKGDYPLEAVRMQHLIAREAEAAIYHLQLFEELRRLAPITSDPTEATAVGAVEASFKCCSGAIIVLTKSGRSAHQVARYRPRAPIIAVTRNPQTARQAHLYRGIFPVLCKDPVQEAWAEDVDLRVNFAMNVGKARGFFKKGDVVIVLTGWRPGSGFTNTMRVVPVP

NCI-H1975 [18] = experiment: Effect on PKM2 protein expression in human NCI-H1975 cells at 1 to 2 micromol/L by Western blot analysis; format: functional, cell-based; conditions: dose 1-2 µmol/L
HCC827 [19] = experiment: Effect on PKM2 protein expression in human HCC827 cells at 1 to 2 micromol/L by Western blot analysis; format: functional, cell-based; conditions: dose 1-2 µmol/L
[20] = target: T2, [Pyruvate dehydrogenase (acetyl-transferring)] kinase isozyme 1, mitochondrial (Homo sapiens, UniProt Q15118); experiment: Binding affinity to PDK1 (unknown origin) assessed as dissociation constant associated for 60 secs and dissociated for 90 secs by bio-layer interferometry analysis
T2 sequence (Q15118 whole entry): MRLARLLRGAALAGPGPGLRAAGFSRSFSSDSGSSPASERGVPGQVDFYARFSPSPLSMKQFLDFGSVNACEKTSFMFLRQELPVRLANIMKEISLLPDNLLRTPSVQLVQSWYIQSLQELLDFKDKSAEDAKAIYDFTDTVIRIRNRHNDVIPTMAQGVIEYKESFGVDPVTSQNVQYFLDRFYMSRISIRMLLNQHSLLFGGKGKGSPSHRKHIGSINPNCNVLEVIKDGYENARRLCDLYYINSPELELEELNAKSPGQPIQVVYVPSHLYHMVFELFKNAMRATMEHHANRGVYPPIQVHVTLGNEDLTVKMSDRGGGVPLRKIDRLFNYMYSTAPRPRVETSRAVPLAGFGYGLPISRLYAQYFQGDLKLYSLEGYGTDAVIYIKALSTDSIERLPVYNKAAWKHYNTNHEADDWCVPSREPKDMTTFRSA

[21] = target: T2, [Pyruvate dehydrogenase (acetyl-transferring)] kinase isozyme 1, mitochondrial; experiment: Inhibition of PDK1 in human NCI-H1975 cells at 1 to 2 micromol/L by Western blot analysis; format: cell-based; conditions: dose 1-2 µmol/L
[22] = target: T2, [Pyruvate dehydrogenase (acetyl-transferring)] kinase isozyme 1, mitochondrial; experiment: Inhibition of PDK1 in human HCC827 cells at 1 to 2 micromol/L by Western blot analysis; format: cell-based; conditions: dose 1-2 µmol/L
NCI-H1975 [23] = experiment: Downregulation of PDK1 protein expression in human NCI-H1975 cells at 1 to 2 micromol/L by Western blot analysis; format: functional, cell-based; conditions: dose 1-2 µmol/L
NCI-H1975 [24] = experiment: Upregulation of PDH protein expression in human NCI-H1975 cells at 1 to 2 micromol/L by Western blot analysis; format: functional, cell-based; conditions: dose 1-2 µmol/L
HCC827 [25] = experiment: Upregulation of PDH protein expression in human HCC827 cells at 1 to 2 micromol/L by Western blot analysis; format: functional, cell-based; conditions: dose 1-2 µmol/L
NCI-H1975 [26] = experiment: Induction of apoptosis in human NCI-H1975 cells transfected with siRNA assessed as late apoptotic cells at 2 micromol/L incubated for 24 hrs by Annexin V-FITC/PI staining based analysis (reference value: 4.03%); format: functional; conditions: dose 2 µmol/L, at 2 µM
NCI-H1975 [27] = experiment: Induction of apoptosis in human NCI-H1975 cells transfected with siRNA assessed as early apoptotic cells at 1 micromol/L incubated for 24 hrs by Annexin V-FITC/PI staining based analysis (reference value: 1.16%); format: functional; conditions: dose 1 µmol/L, at 1 µM
NCI-H1975 [28] = experiment: Induction of apoptosis in human NCI-H1975 cells transfected with siRNA assessed as late apoptotic cells at 1 micromol/L incubated for 24 hrs by Annexin V-FITC/PI staining based analysis (reference value: 4.03%); format: functional; conditions: dose 1 µmol/L, at 1 µM
NCI-H1975 [29] = experiment: Induction of apoptosis in human NCI-H1975 cells with siRNA mediated […] knockdown assessed as early apoptotic cells at 1 micromol/L incubated for 24 hrs by Annexin V-FITC/PI staining based analysis (reference value: 2.54%); format: functional; conditions: dose 1 µmol/L, at 1 µM
NCI-H1975 [30] = experiment: Induction of apoptosis in human NCI-H1975 cells with siRNA mediated […] knockdown assessed as early apoptotic cells at 2 micromol/L incubated for 24 hrs by Annexin V-FITC/PI staining based analysis (reference value: 2.54%); format: functional; conditions: dose 2 µmol/L, at 2 µM
NCI-H1975 [31] = experiment: Antiproliferative activity against human NCI-H1975 cells transfected with siRNA assessed as inhibition of cell growth incubated for 24 hrs by CCK-8 assay; format: functional, cell-based; conditions: NCI-H1975, 24 h
NCI-H1975 [32] = experiment: Antitumor activity against human NCI-H1975 cells xenografted in athymic nu/nu mouse assessed as reduction in tumor size at 2.4 to 4.8 mg/kg, ip administered every 2 days for 11 days by vernier caliper method; format: functional, organism-based; conditions: dose 2.4-4.8 mg/kg, time 11.0 day
NCI-H1975 [33] = experiment: Antitumor activity against human NCI-H1975 cells xenografted in athymic nu/nu mouse assessed as damage in tumor tissue at 2.4 to 4.8 mg/kg, ip administered every 2 days for 11 days by H and E staining based analysis; format: functional, organism-based; conditions: dose 2.4-4.8 mg/kg, time 11.0 day
NCI-H1975 [34] = experiment: Synergistic antiproliferative activity against human NCI-H1975 cells harboring EGFR mutant assessed as cell growth inhibition at 0.5 to 4 micromol/L incubated for 24 hrs in presence of 2.5 to 20 micromol/L gefitinib by CCK-8 assay; format: functional, cell-based; conditions: dose 0.5-4 µmol/L
NCI-H1975 [35] = experiment: Induction of apoptosis in human NCI-H1975 cells assessed as late apoptotic cells at 0.5 micromol/L incubated for 24 hrs in presence of gefitinib by Annexin V-FITC/PI staining based analysis (reference value: 8.61%); format: functional; conditions: dose 0.5 µmol/L, at 0.5 µM
in vitro = conditions: human, HEK293T cells
Description: Cytotoxicity against HEK293T cells assessed as inhibition of cell growth incubated for 24 hrs by CCK-8 assay

In the case of `COC(=O)[C@H](CS[C@H](CC=C(C)C)C1=CC(=O)c2c(O)ccc(O)c2C1=O)NC(=O)CCCC[C@@H]1CCSC(c2ccccc2C)S1` (some centres not stated), the IC50 (A549) is reported as 6.26 µM, the IC50 (NCI-H1975 [1]) is reported as 1.51 µM and the Activity (NCI-H1975 [2]) is reported as “Dose-Dependent Effect”. The Activity (HCC827 [3]) was “Dose-Dependent Effect”, the Activity (HCC827 [4]) was “Dose-Dependent Effect” and the Activity (NCI-H1299 [5]) was 4.68%. For the same compound, the Activity (NCI-H1299 [6]) was 2.68%, the Activity (NCI-H1299 [7]) was 16.7% and the Activity (NCI-H1975 [8]) was 3.84%. The Activity (NCI-H1975 [9]) was 22.2%, the Activity (NCI-H1975 [10]) was 37.3% and the Activity (NCI-H1975 [11]) was “Active”. For the same compound, the Activity (NCI-H1975 [12]) was “Active”, the Activity (NCI-H1975 [13]) was “Active” and the Activity (NCI-H1975 [14]) was “Active”. The Activity (HCC827 [15]) was “Active”, the Kd (Pyruvate kinase PKM [16]) was 28 µM and the Activity (Pyruvate kinase PKM [17]) was “Active”. For the same compound, the Activity (NCI-H1975 [18]) was “inactive”, the Activity (HCC827 [19]) was “inactive” and the Kd [20] was 12.1 µM. The inhibition [21] was “Active”, the inhibition [22] was “Active” and the Activity (NCI-H1975 [23]) was “inactive”. For the same compound, the Activity (NCI-H1975 [24]) was “Active”, the Activity (HCC827 [25]) was “Active” and the Activity (NCI-H1975 [26]) was 9.4%. It also gave an Activity (NCI-H1975 [27]) of 3.44%, an Activity (NCI-H1975 [28]) of 7.86% and an Activity (NCI-H1975 [29]) of 1.82%. The Activity (NCI-H1975 [30]) was 2.67%, the IC50 (NCI-H1975 [31]) was 3.5 µM and the Activity (NCI-H1975 [32]) was “Active”. For the same compound, the Activity (NCI-H1975 [33]) was “Active”, the Activity (NCI-H1975 [34]) was “Active” and the Activity (NCI-H1975 [35]) was 25%. It also gave an IC50 at 24 h (in vitro) of 99.5 µM.
